Reference: US8945540B2, “Compositions for enhancing the antibacterial activity of myeloperoxidase and methods of use thereof” (Exoxemis, Inc., priority 2008, dated 2015)
Converted amounts (≈) assume the structure as drawn.

What was measured:
Staphylococcus aureus [1] = assay: Microbicidal activity of the myeloperoxidase system (p-MPO, glucose oxidase, glucose) with amino acids in the presence of blood, CFU plate counts; synergy determination from these CFU; assay type: cell-based; details: for Average Viability CFU/ml 50 min / Log Reduction 50 min: single amino acid 2.5 mM, MPO 4.7 U/ml, GO 4.2 U/ml
Procedure, shortened: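 Microbicidal activity of the MPO–glucose oxidase–glucose system against S. aureus with amino acids was assessed in 3% whole blood. Reactions of 1 mL were run at room temperature or 37° C and stopped with catalase. Surviving CFU were counted on trypticase soy agar. For each pair, Actual CFU was divided by Predicted CFU and multiplied by 100. This value was compared with variability-based thresholds to classify synergism, antagonism or additivity.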

Staphylococcus aureus [2] = assay: Control: microbicidal activity of the amino acid or analogue alone (no glucose, MPO, glucose oxidase) in the presence of blood; assay type: cell-based; details: amino acid alone 5 mM; MPO 0; GO 0; no glucose; blood; without replication
Excerpt: As a control to determine the microbicidal activity of the amino acids alone, the foregoing procedure was followed without replication, except in the absence of glucose, MPO, and glucose oxidase.

Bacillus subtilis spores = assay: Myeloperoxidase system with beta alanine and L-alanine against spores in the presence of blood; assay type: cell-based; details: 2 hours, MPO 25 μg/mL (9.4 U/mL), GO 8.3 U/mL
Method: The effect of a two-way combination of beta alanine and L-alanine, as potential enhancing agents, for MPO microbicidal action against Bacillus subtilis spores in the presence of blood, was determined following the procedure of Example 2. However, in this case each test contained a single low concentration of MPO (25 μg/mL or 9.4 U/mL) and glucose oxidase (8.3 U/mL). […] The effect of both L-alanine and beta alanine alone on the myeloperoxidase antimicrobial activity against Bacillus subtilis spores was tested for comparison.
The nature of the relationship between beta alanine and L-alanine was examined following the synergy determination method described above.

Candida albicans = assay: Myeloperoxidase system with amino acids in the presence of blood (Example 9); assay type: cell-based; details: MPO 25 μg/mL, GO 8.3 U/mL, L-valine/glycine 2.5 μmol/mL each, beta alanine 5 μmol/mL
Method: (§1) The effect of two way combinations of amino acids glycine and valine, and individually beta alanine, as potential enhancing agents for MPO microbicidal action against Pseudomonas aeruginosa, Staphylococcus aureus and Candida albicans, in the presence of blood, was determined following the procedure of Example 2. Each organism was tested against a single low concentration of MPO (25 μg/mL or 9.4 U/mL) and glucose oxidase (8.3 U/mL). The two amino acid activators were each added at a final concentration of 2.5 μmol/mL and the individual amino acid, beta alanine, was tested at a single concentration of 5 μmol/mL. The effect of no amino acid containing formulations on the myeloperoxidase antimicrobial activity against these organisms was tested for comparison.

Pseudomonas aeruginosa = assay: as above; assay type: cell-based; details: 60 minutes, MPO 25 μg/mL, GO 8.3 U/mL, L-valine/glycine 2.5 μmol/mL each, beta alanine 5 mM
Method: as §1

E. faecalis = assay: MIC, modified CLSI broth microdilution; assay type: cell-based, Enterococcus faecalis
Excerpt: (§2) All clinical isolates were obtained from the culture collection of Eurofins Medinet Anti-Infective Services (Herndon, Va.), and represent diverse geographical regions. They were originally derived from clinical specimens and identified using standard microbiological methods (see Table 33 below for details). Escherichia coli ATCC 25922, Staphylococcus aureus ATCC 25923, S. aureus ATCC 29213, Pseudomonas aeruginosa ATCC 27853, and Enterococcus faecalis ATCC 29212 were used as quality control strains for the Enhanced MPO Solution and comparator agents to validate the modified Clinical and Laboratory Standards Institute (CLSI, formally NCCLS) broth microdilution method.
Modifications were made to the standard broth microdilution method to accommodate the rapid in vitro activity of the Enhanced MPO Solution as described below. Each antimicrobial agent and Concentrate solution was diluted in double strength cation-adjusted Mueller-Hinton Broth (CAMHB) and dispensed in mircrodilution trays. All β-hemolytic streptococci were tested in double strength CAMHB supplemented with 5% lysed horse blood. Isolates were prepared by suspending several colonies (four to six) from an overnight culture on Trypticase Soy Agar (TSA) with 5% sheep blood into sterile saline and the density adjusted to a 0.5 McFarland standard (˜10^8 CFU/ml). Standardized bacterial suspensions were further diluted in double strength Diluent solution so that approximately 5×10^5 CFU/ml was mixed with serial drug dilutions. […]
MIC ranges were established for the Enhanced MPO Solution by testing over 20 replicates of one lot of the Enhanced MPO Solution against S. aureus ATCC 29213 and E. coli ATCC 25922. Quality control parameters were then determined for the Enhanced MPO Solution by testing three lots of the Concentrate solution used for preparation of the final Enhanced MPO Solution formulation. […] The effects of modifying the standard broth microdilution test were also assessed with antibiotics with known quality control limits to validate the CLSI broth microdilution method.

E. faecium = assay: MIC, modified CLSI broth microdilution; assay type: cell-based; details: Enterococcus faecium, 22 clinical isolates
Method: (§5) Modifications were made to the standard broth microdilution method to accommodate the rapid in vitro activity of the Enhanced MPO Solution as described below. Each antimicrobial agent and Concentrate solution was diluted in double strength cation-adjusted Mueller-Hinton Broth (CAMHB) and dispensed in mircrodilution trays. All β-hemolytic streptococci were tested in double strength CAMHB supplemented with 5% lysed horse blood. Isolates were prepared by suspending several colonies (four to six) from an overnight culture on Trypticase Soy Agar (TSA) with 5% sheep blood into sterile saline and the density adjusted to a 0.5 McFarland standard (˜10^8 CFU/ml). Standardized bacterial suspensions were further diluted in double strength Diluent solution so that approximately 5×10^5 CFU/ml was mixed with serial drug dilutions. […] The microdilution trays were incubated in ambient air at 35° C. for 18 to 24 h.

S. aureus = assay: MIC, modified CLSI broth microdilution; assay type: cell-based, Staphylococcus aureus
Excerpt: as §2
(§3) Modifications were made to the standard broth microdilution method to accommodate the rapid in vitro activity of the Enhanced MPO Solution as described below. Each antimicrobial agent and Concentrate solution was diluted in double strength cation-adjusted Mueller-Hinton Broth (CAMHB) and dispensed in mircrodilution trays. All β-hemolytic streptococci were tested in double strength CAMHB supplemented with 5% lysed horse blood. Isolates were prepared by suspending several colonies (four to six) from an overnight culture on Trypticase Soy Agar (TSA) with 5% sheep blood into sterile saline and the density adjusted to a 0.5 McFarland standard (˜10^8 CFU/ml). Standardized bacterial suspensions were further diluted in double strength Diluent solution so that approximately 5×10^5 CFU/ml was mixed with serial drug dilutions. The addition of Diluent solution to the Concentrate solution activates the enzyme system, which in turn exerts its rapid mode of action. The microdilution trays were incubated in ambient air at 35° C. for 18 to 24 h.
(§4) MIC ranges were established for the Enhanced MPO Solution by testing over 20 replicates of one lot of the Enhanced MPO Solution against S. aureus ATCC 29213 and E. coli ATCC 25922. Quality control parameters were then determined for the Enhanced MPO Solution by testing three lots of the Concentrate solution used for preparation of the final Enhanced MPO Solution formulation. Testing was performed in duplicate against S. aureus ATCC 29213 and E. coli ATCC 25922. The effects of modifying the standard broth microdilution test were also assessed with antibiotics with known quality control limits to validate the CLSI broth microdilution method.

S. epidermidis = assay: MIC, modified CLSI broth microdilution; assay type: cell-based, Staphylococcus epidermidis
Method: as §5

S. agalactiae = assay: MIC, modified CLSI broth microdilution (CAMHB with 5% lysed horse blood); assay type: cell-based; details: Streptococcus agalactiae, 34 clinical isolates
Method: as §5

S. pyogenes = assay: as above; assay type: cell-based; details: Streptococcus pyogenes, 33 clinical isolates
Method: as §5

[3] = tested on: streptococci groups C, F, and G; assay: as above; assay type: cell-based, Streptococcus Group C, Group F, Group G; details: for MIC Range: range for all strains tested
Method: as §5

Citrobacter freundii = assay: MIC, modified CLSI broth microdilution; assay type: cell-based; details: 20 clinical isolates
Excerpt: (§6) All clinical isolates were obtained from the culture collection of Eurofins Medinet Anti-Infective Services (Herndon, Va.), and represent diverse geographical regions. […] Escherichia coli ATCC 25922, Staphylococcus aureus ATCC 25923, S. aureus ATCC 29213, Pseudomonas aeruginosa ATCC 27853, and Enterococcus faecalis ATCC 29212 were used as quality control strains for the Enhanced MPO Solution and comparator agents to validate the modified Clinical and Laboratory Standards Institute (CLSI, formally NCCLS) broth microdilution method.

Enterobacter cloacae = assay: MIC, modified CLSI broth microdilution; assay type: cell-based; details: 21 clinical isolates
Excerpt: as §6

E. coli = assay: MIC, modified CLSI broth microdilution; assay type: cell-based, Escherichia coli
Excerpt: as §2, §3, §4

Klebsiella pneumoniae = assay: MIC, modified CLSI broth microdilution; assay type: cell-based; details: 31 clinical isolates
Excerpt: as §6

Proteus mirabilis = assay: MIC, modified CLSI broth microdilution; assay type: cell-based; details: 24 clinical isolates
Excerpt: as §6

Acinetobacter species = assay: MIC, modified CLSI broth microdilution; assay type: cell-based; details: Acintobacter spp., 29 clinical isolates
Excerpt: as §6

P. aeruginosa = assay: MIC, modified CLSI broth microdilution; assay type: cell-based; details: Pseudomonas aeruginosa, 53 clinical isolates
Method: as §5

Aeromonas hydrophilia = assay: MIC, modified CLSI broth microdilution; assay type: cell-based; details: 5 clinical isolates, range for all strains tested
Method: as §5

Pasteurella multocida = assay: MIC, modified CLSI broth microdilution; assay type: cell-based; details: 5 clinical isolates, range for all strains tested
Method: as §5

[4] = Table 4, amino acid 5 mM (none: 0 mM), MPO 38 U/ml, GO 33.3 U/ml, blood
[5] = Table 14, in the presence of blood, 50 min
[6] = Enterococcus faecalis, 33 clinical isolates
[7] = Staphylococcus aureus, 109 clinical isolates
[8] = Staphylococcus epidermidis, 31 clinical isolates
[9] = Streptococcus Group G, 18 clinical isolates
[10] = Escherichia coli, 52 clinical isolates

Compound: NCCC(=O)O [Beta alanine]
- Log 10 (CFU + 1) Survivors (Staphylococcus aureus [1]; MPO 25 μg/mL, AA 5 mM, 30 min): 0.0
- Log 10 (CFU + 1) Survivors (Staphylococcus aureus [1]; MPO 25 μg/mL, AA 5 mM, 60 min): 0.0
- Log 10 (CFU + 1) Survivors (Staphylococcus aureus [1]; MPO 25 μg/mL, AA […], 30 min): 0.0
- Log 10 (CFU + 1) Survivors (Staphylococcus aureus [1]; MPO 25 μg/mL, AA […], 60 min): 0.0
- Log 10 (CFU + 1) Survivors (Staphylococcus aureus [1]; MPO 100 μg/mL, AA 5 mM, 30 min): 0.0
- Log 10 (CFU + 1) Survivors (Staphylococcus aureus [1]; MPO 100 μg/mL, AA 5 mM, 60 min): 0.0
- Log 10 (CFU + 1) Survivors (Staphylococcus aureus [1]; MPO 100 μg/mL, AA 20 mM, 30 min): 0.0
- Log 10 (CFU + 1) Survivors (Staphylococcus aureus [1]; MPO 100 μg/mL, AA 20 mM, 60 min): 0.0
- Average Viability CFU/ml 60 min (Staphylococcus aureus [1]; [4]): 0 CFU/ml
- Log Reduction 60 min (Staphylococcus aureus [1]; [4]): 7.4
- Average Viability CFU/ml 50 min (Staphylococcus aureus [1]; [5]): 6000000 CFU/ml
- Log Reduction 50 min (Staphylococcus aureus [1]; [5]): 0.7
- Average Viability CFU/ml 50 min (Staphylococcus aureus [1]; blood): 505000 CFU/ml
- Log Reduction 50 min (Staphylococcus aureus [1]; blood): 1.7
- increased performance over the MPO system without amino acids (Staphylococcus aureus [1]; within 30 minutes, MPO 25 μg/mL, GO 8.3 U/mL, blood, 5 μmol/mL): 6.8 logs
- kill of S. aureus (in words) (Staphylococcus aureus [1]; within 60 minutes, lower concentrations of amino acid and MPO, blood): complete kill
- Average Viability CFU/ml 60 min (Staphylococcus aureus [2]): 25500000 CFU/ml
- Log Reduction 60 min (Staphylococcus aureus [2]): 0.0
- CFU survivors (Bacillus subtilis spores): 3100000 CFU
- improvement in microbicidal activity over the MPO system without amino acids (Candida albicans): 1.9 logs
- enhancing effect over the MPO system without amino acids (Pseudomonas aeruginosa): 4.6 logs

Compound: C/C(=C\C(=O)OCCCCCCCCC(=O)O)C[C@@H]1OC[C@H](C[C@@H]2O[C@H]2[C@@H](C)[C@H](C)O)[C@@H](O)[C@H]1O [mupirocin]
- MIC50 (E. faecalis; [6]): 32 µg/mL (≈ 63.9 µM)
- MIC90 (E. faecalis; [6]): > 32 µg/mL
- MIC range, upper end (E. faecalis; clinical isolates): > 32 µg/mL
- MIC50 (E. faecium): 0.25 µg/mL (≈ 0.499 µM)
- MIC90 (E. faecium): 0.25 µg/mL (≈ 0.499 µM)
- MIC Range (E. faecium; range for all strains tested): 0.06 to 0.5 µg/mL
- MIC by the modified method versus published quality control ranges (S. aureus; S. aureus ATCC 29213, inoculum prepared in Diluent solution): within previously published quality control ranges
- MIC50 (S. aureus; [7]): 0.06 µg/mL (≈ 0.12 µM)
- MIC90 (S. aureus; [7]): 0.12 µg/mL (≈ 0.24 µM)
- MIC range, upper end (S. aureus; clinical isolates): > 32 µg/mL
- MIC50 (S. epidermidis; [8]): 0.12 µg/mL (≈ 0.24 µM)
- MIC90 (S. epidermidis; [8]): > 32 µg/mL
- MIC range, upper end (S. epidermidis; clinical isolates): > 32 µg/mL
- MIC50 (S. agalactiae): 0.5 µg/mL (≈ 0.999 µM)
- MIC90 (S. agalactiae): 0.5 µg/mL (≈ 0.999 µM)
- MIC Range (S. agalactiae; range for all strains tested): 0.12 to 2 µg/mL
- MIC50 (S. pyogenes): 0.12 µg/mL (≈ 0.24 µM)
- MIC90 (S. pyogenes): 0.25 µg/mL (≈ 0.499 µM)
- MIC Range (S. pyogenes; range for all strains tested): 0.06 to 0.5 µg/mL
- MIC Range ([3]; Streptococcus Group C, 8 clinical isolates): 0.06 to 0.5 µg/mL
- MIC Range ([3]; Streptococcus Group F, 2 clinical isolates): 0.25-0.25 μg/ml
- MIC50 [3, 9]: 0.12 µg/mL (≈ 0.24 µM)
- MIC90 [3, 9]: 0.12 µg/mL (≈ 0.24 µM)
- MIC Range [3, 9]: 0.06 to 0.5 µg/mL

Compound: gentamicin
- MIC 50% (Citrobacter freundii): 2 µg/mL
- MIC 90% (Citrobacter freundii): 4 µg/mL
- MIC 50% (Enterobacter cloacae): 2 µg/mL
- MIC 90% (Enterobacter cloacae): 8 µg/mL
- MIC by the modified method versus published quality control ranges (E. coli; E. coli ATCC 25922, inoculum prepared in Diluent solution): within previously published quality control ranges
- MIC 50% (E. coli; [10]): 4 µg/mL
- MIC 90% (E. coli; [10]): >32 µg/mL
- MIC 50% (Klebsiella pneumoniae): 4 µg/mL
- MIC 90% (Klebsiella pneumoniae): >32 µg/mL
- MIC 50% (Proteus mirabilis): 8 µg/mL
- MIC 90% (Proteus mirabilis): 8 µg/mL
- MIC 50% (Acinetobacter species): 8 µg/mL
- MIC 90% (Acinetobacter species): >32 µg/mL
- MIC 50% (P. aeruginosa): 4 µg/mL
- MIC 90% (P. aeruginosa): 16 µg/mL
- MIC Range (Aeromonas hydrophilia): 1 to 4 µg/mL
- MIC Range (Pasteurella multocida): 2 to 16 µg/mL
